One may read the Ki as a dissociation constant, usually derived from enzyme kinetics or from competition with a known ligand.

Consider eight molecules from patent publication US4460594A, “Bicyclo-hetero-alkylene-1-piperidines, pharmaceutical compositions thereof and methods of use thereof” (Beecham Group p.l.c., priority 1981, dated 1984).

Assay [1] has as its target α-Adrenoceptor. Description: displacement of 3H-Yohimbine, α-adrenoceptor labelling. It is filed as binding. The source says:
(§1) α-Adrenoceptor and dopamine receptors were labelled using methods similar to those previously reported [see S. Lazareno and S. R. Nahorski, Communication presented to Brit. Pharm. Soc., Bradford, 74 (1981), and P. Greengrass and R. Bremer, Eur. J. Pharmacol 55, 323 (1979)].
Background: In a radioligand displacement assay an active substance lowers the binding of a labelled ligand.

Assay [2] has as its target α-Adrenoceptor. Nature of the assay: displacement of 3H-Prazosin, α-adrenoceptor labelling. It is filed as binding.
Source text: as §1

In assay [3] the target is T1, dopamine receptor (Rattus norvegicus, UniProt P61169).
T1 construct: from tissue
Description: displacement of 3H-Domperidone, dopamine receptor labelling. It is filed as binding.
Source text: as §1

Assay [4] addresses T1, dopamine receptor. Nature of the assay: displacement of 3H-Spiperone, dopamine receptor labelling. The assay is classed as binding.
Source text: as §1

For assay [5], the system named is presynaptic dopaminergic autoreceptors. Nature of the assay: Inhibition of Spontaneous Climbing in the Mouse. It is filed as in vivo. The settings on record: 10 minute period commencing 3 minutes after administration; for % Inhibition of Spontaneous Climbing Behaviour in Mice: at 0.2 mg/kg subcutaneous; for ID50, Inhibition of Spontaneous Climbing Behaviour in Mice: subcutaneous. As for the experimental part:
It is believed that this inhibitory effect is mediated by stimultion of presynaptic dopaminergic autoreceptors, i.e. receptors whose stimulation results in inhibition of dopamine synthesis and electrical activity of dopamine neurones. Spontaneous climbing behavior was assessed by the method of M. P. Martres et al., Brain Res. 136, 319 (1977).
This involves the monitoring of the frequency of climbing behaviour of mice in inverted food hoppers over a 10 minute period commencing 3 minutes after subcutaneous administration of compound.
A climb is defined as the mouse having all four feet off the ground. Experiments are carried out with a minimum of 5 groups of 10 mice, one group acting as control. […] The ID50 value is calculated using the Litchfield and Wilcoxon technique and is defined as the concentration of drug which would be expected to reduce spontaneous climbing of a group of mice by 50%.

The mark [6] stands for this setting: read-out: INHIBITION CONSTANT Ki, 3H-Yohimbine.
Where [7] appears, read: read-out: INHIBITION CONSTANT Ki, 3H-Prazosin.
The mark [8] stands for this setting: 3H-Domperidone, read-out: INHIBITION CONSTANT Ki, 3H-Domperidone.
[9] abbreviates: 3H-Spiperone, read-out: INHIBITION CONSTANT Ki, 3H-Spiperone.

Molecules are shown by their SMILES. Counter-ions that a name gives are not always drawn.

T1 sequence (P61169 whole entry): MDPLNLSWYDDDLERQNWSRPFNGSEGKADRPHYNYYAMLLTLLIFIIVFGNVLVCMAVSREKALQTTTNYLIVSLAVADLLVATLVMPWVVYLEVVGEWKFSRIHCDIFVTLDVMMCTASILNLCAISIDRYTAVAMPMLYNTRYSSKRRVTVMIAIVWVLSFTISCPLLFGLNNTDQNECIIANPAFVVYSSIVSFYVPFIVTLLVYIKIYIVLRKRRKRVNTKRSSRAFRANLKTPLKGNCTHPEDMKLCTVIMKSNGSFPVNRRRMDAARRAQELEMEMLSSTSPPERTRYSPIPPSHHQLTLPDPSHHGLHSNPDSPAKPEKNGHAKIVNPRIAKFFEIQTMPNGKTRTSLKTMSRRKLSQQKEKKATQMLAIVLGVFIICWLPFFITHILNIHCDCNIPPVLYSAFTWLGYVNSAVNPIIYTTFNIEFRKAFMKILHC

In the case of `NC1CCc2c(ccc(O)c2O)C1` (stereo not drawn) [A-5,6-DTN], the Ki is 690 nM in assay [1] (setting [6]), 16000 nM in assay [2] (setting [7]), 240 nM in assay [3] (setting [8]) and 520 nM in assay [4] (setting [9]).
On to `NC1CCc2cc(O)c(O)cc2C1` (stereo not drawn) [A-6,7-DTN], for which the inhibition constant Ki in assay [1] (read-out: […] Ki, 3H-Yohimbine) worked out at 560 nM; in assay [2] (read-out: […] Ki, 3H-Prazosin), 10000 nM; in assay [3], 12 nM; in assay [4] it was 130 nM.
On to `Br.Oc1cccc(C2CCCN(Cc3c(Br)oc4ccccc34)C2)c1` (stereo not drawn) [Compound 11, 3-[1-(2-bromo-3-benzofurylmethyl)-3-piperidyl]phenol hydrobromide], for which the “% Inhibition of Spontaneous Climbing Behaviour in Mice” value (“% Inhibition” below) in assay [5] is 24%.
`Oc1cccc(C2CCCN(Cc3coc4ccccc34)C2)c1` (stereo not drawn) [Compound 12, 3-[1-(3-Benzofurylmethyl)-3-piperidyl]phenol hydrobromide hemihydrate]: the “% Inhibition” value in assay [5] is reported as 23%.
In the case of `Oc1cccc(C2CCCN(CCc3cc4ccccc4o3)C2)c1` (stereo not drawn) [Compound 13, 3-(1-[2-(2-Benzofuryl)ethyl]-3-piperidyl)phenol hydrobromide hemihydrate], the “ID50, Inhibition of Spontaneous Climbing Behaviour in Mice” value (“ID50, Inhibition” below) in assay [5] came to 0.29 mg/kg.
In the case of `Br.Oc1cccc(C2CCCN(Cc3cc4ccccc4o3)C2)c1` (stereo not drawn) [Compound 14, 3-[1-(2-benzofurylmethyl)-3-piperidyl]phenol hydrobromide], the “ID50, Inhibition” value in assay [5] was determined as 1.7 mg/kg.
Take `Oc1cccc(C2CCCN(CC3Cc4ccccc4O3)C2)c1` (stereo not drawn) [Compound 30, 3-(1-[(2,3-Dihydro-2-benzofuranyl)methyl]-3-piperidinylphenol) hydrobromide hydrate]: the inhibitory constant (Ki) in assay [1] (setting [6]) is 13 nM; in assay [2] (setting [7]), 210 nM; in assay [3] (setting [8]), 48 nM; in assay [4] (setting [9]) it was 200 nM. The “ID50, Inhibition” value in assay [5] is on record as 0.09 mg/kg.
In the case of `Oc1cccc(C2CCCN(CCc3c[nH]c4ccccc34)C2)c1` (stereo not drawn) [Compound 34, 3-(1-[2-(1H-3-Indolyl)ethyl]-3-piperidyl)phenol], in assay [5], the “% Inhibition” value worked out at 52%.
